Source: US5663331A, “Cephalosporin compounds” (Il-Dong Pharm. Co., Ltd., priority 1992, dated 1997)
Converted amounts (≈) assume the structure as drawn.

Experiments:
Assay type in all cases: cell-based
[1] = system: Bacillus subtilis ATCC 6633; experiment: MIC, two-fold dilution method, Bacillus subtilis ATCC 6633; conditions: ATCC6633, Muller Hinton Broth, 10^6 CFU per ml, 37° C., 18 to 20 hours, read-out: Antibacterial Activity (MIC)
In short: (§1)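 Two-fold serial compound dilutions in Mueller Hinton broth were inoculated with 10^6 CFU/ml of each standard strain. Plates were incubated at 37 °C for 18–20 h to give the minimal inhibitory concentration.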

[2] = system: Staphylococcus aureus ATCC 65389; experiment: MIC, two-fold dilution method, Staphylococcus aureus ATCC 65389; conditions: ATCC65389, Muller Hinton Broth, 10^6 CFU per ml, 37° C., 18 to 20 hours, read-out: Antibacterial Activity (MIC)
In short: as §1

[3] = system: Staphylococcus epidermidis ATCC 12228; experiment: MIC, two-fold dilution method, Staphylococcus epidermidis ATCC 12228; conditions: ATCC12228, Muller Hinton Broth, 10^6 CFU per ml, 37° C., 18 to 20 hours, read-out: Antibacterial Activity (MIC)
In short: as §1

[4] = system: Streptococcus faecalis ATCC 10541; experiment: MIC, two-fold dilution method, Streptococcus faecalis ATCC 10541; conditions: Enterococcus faecalis, ATCC10541, Muller Hinton Broth, 10^6 CFU per ml, 37° C., 18 to 20 hours, read-out: Antibacterial Activity (MIC)
In short: as §1

[5] = system: Pseudomonas aeurginosa NCTC 10490; experiment: MIC, two-fold dilution method, Pseudomonas aeurginosa NCTC 10490; conditions: NCTC10490, Muller Hinton Broth, 10^6 CFU per ml, 37° C., 18 to 20 hours, read-out: Antibacterial Activity (MIC)
In short: as §1

[6] = system: Esherichia coli ATCC 25922; experiment: MIC, two-fold dilution method, Esherichia coli ATCC 25922; conditions: Muller Hinton Broth, 10^6 CFU per ml, 37° C., 18 to 20 hours, read-out: Antibacterial Activity (MIC)
In short: as §1

[7] = system: Klebsiella pneumoniae ATCC 10031; experiment: MIC, two-fold dilution method, Klebsiella pneumoniae ATCC 10031; conditions: ATCC10031, Muller Hinton Broth, 10^6 CFU per ml, 37° C., 18 to 20 hours, read-out: Antibacterial Activity (MIC)
In short: as §1

Compound	MIC [1] [µg/mL]	MIC [2] [µg/mL]	MIC [3] [µg/mL]	MIC [4] [µg/mL]	MIC [5] [µg/mL]	MIC [6] [µg/mL]	MIC [7] [µg/mL]
CO/N=C(\C(=O)NC1C(=O)N2C(C(=O)[O-])=C(CSc3cc[n+](C)c4cc(N5CCNCC5)c(F)cc34)CSC12)c1csc(N)n1 (stereo not drawn) [Compound I-1, 7-[(Z)-2-(2-aminothiazol-4-yl)-2-(methoxyimino)acetamide]-3-(1-methyl-6-fluoro-7-piperazinylquinolinium-4-yl)thiomethyl-3-cephem-4-carboxylate]	0.2 (≈ 0.297 µM)	0.2 (≈ 0.297 µM)	0.1 (≈ 0.149 µM)	0.05 (≈ 0.0743 µM)	1.56 (≈ 2.32 µM)	0.78 (≈ 1.16 µM)	0.2 (≈ 0.297 µM)
C=CCO/N=C(\C(=O)NC1C(=O)N2C(C(=O)[O-])=C(CSc3cc[n+](CC)c4cc(N5CCNCC5)c(F)cc34)CS[C@H]12)c1csc(N)n1 (stereo partly drawn) [Compound I-29, 7-[(Z)-2-(2-aminothiazol-4-yl)-2-(allyloxyimino)acetamido]-3-(1-ethyl-6-fluoro-7-piperazinylquinolinium-4-yl)thiomethyl-3-cephem-4-carboxylate]	0.39 (≈ 0.547 µM)	0.78 (≈ 1.09 µM)	0.78 (≈ 1.09 µM)	0.39 (≈ 0.547 µM)	3.13 (≈ 4.39 µM)	1.56 (≈ 2.19 µM)	0.39 (≈ 0.547 µM)
C#CCO/N=C(\C(=O)NC1C(=O)N2C(C(=O)[O-])=C(CSc3cc[n+](C4CC4)c4cc(N5CCN(CC)CC5)c(F)cc34)CSC12)c1csc(N)n1 (stereo not drawn) [Compound I-43]	0.1 (≈ 0.133 µM)	0.1 (≈ 0.133 µM)	0.1 (≈ 0.133 µM)	0.05 (≈ 0.0666 µM)	0.78 (≈ 1.04 µM)	1.56 (≈ 2.08 µM)	0.78 (≈ 1.04 µM)
C#CCO/N=C(\C(=O)NC1C(=O)N2C(C(=O)[O-])=C(CSc3cc[n+](C4CC4)c4cc(N5CCNCC5)c(F)cc34)CS[C@H]12)c1csc(N)n1 (stereo partly drawn) [Compound I-41, 7-[(Z)-2-(2-aminothiazol-4-yl)-2-(propargyloxyimino)acetamido]-3-(1-cyclopropyl-6-fluoro-7-piperazinylquinolinium-4-yl)thiomethyl-3-cephem-4-carboxylate]	0.2 (≈ 0.277 µM)	0.78 (≈ 1.08 µM)	0.78 (≈ 1.08 µM)	0.39 (≈ 0.54 µM)	3.13 (≈ 4.33 µM)	3.13 (≈ 4.33 µM)	6.25 (≈ 8.65 µM)
C=CCO/N=C(\C(=O)NC1C(=O)N2C(C(=O)[O-])=C(CSc3cc[n+](C)c4cc(N5CCN(C)CC5)c(F)cc34)CSC12)c1csc(N)n1 (stereo not drawn) [Compound I-22, 7-[(Z)-2-(2-aminothiazol-4-yl)-2-(allyloxyimino)acetamido]-3-[1-methyl-6-fluoro-7-(N-methylpiperazinyl)quinolinium-4-yl]thiomethyl-3-cephem-4-carboxylate]	0.39 (≈ 0.547 µM)	0.2 (≈ 0.281 µM)	0.1 (≈ 0.14 µM)	0.013 (≈ 0.0182 µM)	3.13 (≈ 4.39 µM)	6.25 (≈ 8.77 µM)	0.39 (≈ 0.547 µM)
C=CCO/N=C(\C(=O)NC1C(=O)N2C(C(=O)[O-])=C(CSc3cc[n+](C4CC4)c4cc(N5CCNCC5)c(F)cc34)CS[C@H]12)c1csc(N)n1 (stereo partly drawn) [Compound I-25, 7-[(Z)-2-(2-aminothiazol-4-yl)-2-(allyloxyimino)acetamido]-3-(1-cyclopropyl-6-fluoro-7-piperazinylquinolinium-4-yl)thiomethyl-3-cephem-4-carboxylate]	0.2 (≈ 0.276 µM)	0.78 (≈ 1.08 µM)	0.78 (≈ 1.08 µM)	0.2 (≈ 0.276 µM)	0.39 (≈ 0.538 µM)	6.25 (≈ 8.62 µM)	0.39 (≈ 0.538 µM)
